# Measured values published in patent publication US7629317B2, “Control of growth and repair of gastro-intestinal tissues by gastrokines and inhibitors” (The University of Chicago, priority 2001, dated 2009).
# “Also recorded” adds a separate entry of the source.
# Key:
# [1] = tested on: BSC-1 epithelial cell line; assay: Growth (mitogenesis) assay on confluent BSC-1 cells, cells counted 4 days later; format: cell-based, monkey; conditions: compared with related peptides
# From the text: Finding that a 42-amino acid peptide representing a central region of the novel antrum mucosal cell protein AMP-18 had mitogenic activity similar in character to that of the intact protein in pig and mouse antrum extracts (Table 1), has facilitated the characterization of the bio-active region of the molecule. […] Growth activity determinations have so far been accomplished with the kidney epithelial cell line as well as several gastric and intestinal lines.
# Non-transformed monkey kidney epithelial cell line BSC-1 and other epithelial cell lines were used to assess effects on growth. In general, conditions were chosen for each line such that cells are grown to confluence in plastic dishes in supplemented growth medium with minimal calf (or fetal) serum for growth (Lieske et al., 1997); BSC-1 cells become confluent at 10^6/60 mm dish with 1% calf serum. At the start of the growth assay the medium on the confluent culture was aspirated and replaced with fresh medium with minimal serum to maintain viability (0.01% for BSC-1) cells. AMP-18 preparations were added to the culture medium and 4 days later the cell monolayer was rinsed, detached with trypsin, and the cells were counted using a hemocytometer. Determination of the capacity of AMP-18 to initiate DNA synthesis was measured by the incorporation of [^3H]thymidine (Toback, 1980); to confirm the DNA synthesis assay, autoradiograms of leveled cells were counted (Kartha and Toback, 1985).
# [2] = tested on: mice with DSS-induced colitis; assay: DSS-induced colitis in mice (blood in stool, body weight); format: in vivo, C57BL/6 male mice; conditions: P<0.01
# Description: FIG. 27, Left Panel: Effect of AMP peptide on appearance of blood in the stool of mice with DSS-induced colitis. Mice (n=50) were given 3% dextran sulfate sodium, and stools were assayed daily for the presence of blood. Appearance of bloody diarrhea was delayed in animals treated with AMP peptide (10 mg/kg body weight/day) compared to those given the vehicle (P<0.01). Right panel: Effect of treatment with AMP peptide on body weight of mice with DSS colitis. After animals (n=20) received 3% DSS to drink for 4 days, they were switched to water (day 0 on graph).
# To evaluate the therapeutic efficacy of AMP peptide in vivo, colitis of mild to moderate severity was induced in C57BL/6 male mice by giving the animals DSS (3%) dissolved in tap water to drink ad libitum. Evidence of colitis (blood in the stool assayed by hemoccult strips) was found as early as day 1 (FIG. 27, left panel), and in all animals given injections of the vehicle subcutaneously (s.c.) by day 4. AMP peptide was administered s.c. one day before animals were given DSS, and once per day thereafter. Bloody stool was detected in fewer animals given AMP peptide than the vehicle (P<0.01; n=50).
# To look for a systemic effect of treatment with AMP peptide during the development of DSS colitis, body weight was measured. During the first 4 days of DSS administration, body weight changed little in peptide- or vehicle-treated mice. Then DSS was discontinued, the animals were given water to drink (day 0; FIG. 27, right panel), and measurements of weight were continued. […] Because DSS treatment appeared to injure barrier function in monolayer cultures of C2 cells, assessed as a decrease in TER (FIG. 22) and reduced occludin in the detergent-insoluble fraction (FIG. 36), a question was whether DSS might adversely affect the content of this TJ protein in vivo. […] Occludin levels in the NP-40-insoluble fraction were assessed by immunoblotting. […]
# [3] = tested on: Staphylococcus aureus; assay: Growth of other bacteria and fungi; format: cell-based
sequence,measurement,setting,value
"LDALVKEKKLQGKGPGGPPPK [97–117, peptide 77-97 of the mature protein, same as 97-117 of the human precursor]",mitogenic activity (in words),[1]; listed as peptide 97-107,equal to the 42-mer
same,mitogenic activity (in words),[1]; listed as peptide 97-117,enhanced activity
same,appearance of blood in the stool (bloody diarrhea) versus vehicle,"[2]; 3% DSS, 10 mg/kg body weight/day s.c., listed as AMP peptide, 10 mg/kg/day",fewer animals; also recorded: delayed
same,body weight loss versus vehicle,"[2]; 3 days after switching from 3% DSS to water, 10 mg/kg s.c. daily",lost less weight
same,recovery of body weight,"[2]; day 7 after stopping DSS, listed as AMP peptide",complete recovery; also recorded: completely recovered
same,growth of Staphylococcus aureus,[3],did not alter the growth
